Laboratory results as given in article PMC6384738, “Structure-Function Studies of Polymyxin B Lipononapeptides” (Molecules, 2019).
Converted amounts (≈) assume the structure as drawn. Where a SMILES comes first, the peptide text is derived from it. Bridges are numbered along the chain shown (N, C = ends). [ ]: non-standard residue; d: D form. The star is where a group is joined. Hexanoyl(6-Ph) = O=C(CCCCCc1ccccc1)*; dDab = NCC[C@@H](N)C(=O)O; Dab = NCC[C@H](N)C(=O)O

Columns and labels:
[1] = system: A. baumannii ATCC 19606; assay: microbe, parasite or virus in culture
In short: (§1)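 Broth microdilution; read-out = minimum inhibitory concentration, mg/L. Comparators: polymyxin B, colistin, vancomycin, gentamicin.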

[2] = system: E. coli ATCC 25922; assay: microbe, parasite or virus in culture
In short: as §1

[3] = system: K. pneumoniae ATCC 13833; assay: microbe, parasite or virus in culture
In short: as §1

[4] = system: K. pneumoniae ATCC 700603; assay: microbe, parasite or virus in culture
In short: as §1

[5] = system: K. pneumoniae BAA 2146; assay: microbe, parasite or virus in culture
In short: as §1

[6] = system: P. aeruginosa ATTC 27853; assay: microbe, parasite or virus in culture
In short: as §1

[7] = system: P. aeruginosa FADDI PA070; assay: microbe, parasite or virus in culture
In short: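 Growth inhibition is assessed by broth microdilution, with the MIC expressed in mg/L; polymyxin B, colistin, vancomycin and gentamicin act as positive controls.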

[8] = system: S. aureus ATCC 25923; assay: microbe, parasite or virus in culture
In short: as §1

[9] = system: human proximal tubular epithelial cells (HK-2); assay: in vitro
In short: (§2)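 HK-2 cells seeded 2000 cells/well in DMEM/F12 with 10% FBS, grown 24 h, then exposed to compounds (300 µM to 2.3 µM, 2-fold series; colistin/polymyxin B 1 mM to 7.8 µM) for 24 h at 37 °C. LDH in medium read at 450 nm after 30 min; cytotoxicity % relative to 1% Triton X-100 and untreated cells.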

[10] = in vitro; conditions: human
In short: as §2

[11] = system: ATCC reference strains (Escherichia coli, Klebsiella pneumoniae, A. baumannii, and P. aeruginosa)
Method: All compounds synthesised in this study were assessed for their minimum inhibitory concentrations (MIC, mg/L) by broth microdilution assay against five antibiotic-sensitive and resistant ATCC reference strains covering the Gram-negative ESKAPE pathogens (Escherichia coli, Klebsiella pneumoniae, A. baumannii, and P. aeruginosa) (Table 1, Table 2 and Table 3). Staphylococcus aureus was also included as a representative Gram-positive bacterial strain. […] Polymyxin B 1, colistin 2, vancomycin and gentamicin were used as positive inhibitor comparator compounds. Compounds were counter-screened against human proximal tubular epithelial cells (HK-2), using LDH release as a general indicator of cellular toxicity.

[12] = broth microdilution, 18 h, 37 °C
[13] = ESBL strain, broth microdilution, 18 h
[14] = NDM-1 positive strain, broth microdilution, 18 h
[15] = Pmx-resistant clinical isolate, broth microdilution, 18 h
[16] = Gram-positive strain, broth microdilution, 18 h

Compound	MIC A. baumannii ATCC 19606 ([1]; broth microdilution, 18 h)	MIC E. coli ATCC 25922 [2, 12]	MIC K. pneumoniae ATCC 13833 ([3]; broth microdilution, 18 h)	MIC K. pneumoniae ATCC 700603 [4, 13]	MIC K. pneumoniae BAA 2146 [5, 14]	MIC P. aeruginosa ATTC 27853 ([6]; broth microdilution, 18 h)	MIC P. aeruginosa FADDI PA070 [7, 15]	MIC S. aureus ATCC 25923 [8, 16]	CC50 [9]	MIC A. baumannii ATCC 19606 ([1]; ATCC 19606, 18 h)	MIC E. coli ATCC 25922 ([2]; ATCC 25922, 18 h)	MIC K. pneumoniae ATCC 13833 ([3]; ATCC 13833, 18 h)	MIC K. pneumoniae ATCC 700603 ([4]; ATCC 700603, 18 h)	MIC K. pneumoniae BAA 2146 ([5]; BAA 2146, 18 h)	MIC P. aeruginosa ATTC 27853 ([6]; ATTC 27853, 18 h)	MIC P. aeruginosa FADDI PA070 ([7]; FADDI PA070, 18 h)	MIC S. aureus ATCC 25923 ([8]; ATCC 25923, 18 h)	CC50 at 24 h [10]	MIC against the ATCC strains [11]	CC50 ([9]; read-out: CC50 HK-2, LDH release, 24 h incubation)
colistin [Col 2, reference compound]	0.25 µg/mL	0.25 µg/mL	0.25 µg/mL	0.25 µg/mL	0.25 µg/mL	0.5 µg/mL	>32 µg/mL	>32 µg/mL	> 300 µM											
CC(C)C[C@@H]1NC(=O)[C@@H](Cc2ccccc2)NC(=O)[C@H](CCN)NC(=O)[C@@H](NC(=O)[C@@H](CCN)NC(=O)[C@@H](NC(=O)CCCCCc2ccccc2)[C@@H](C)O)CCNC(=O)[C@H]([C@@H](C)O)NC(=O)[C@H](CCN)NC(=O)[C@H](CCN)NC1=O [Compound 25] ({Hexanoyl(6-Ph)}-T[dDab][Dab][Dab][dF]L[Dab][Dab]T; lactam 3-C)										2 µg/mL (≈ 1.76 µM)	0.5 µg/mL (≈ 0.44 µM)	4 µg/mL (≈ 3.52 µM)	1 µg/mL (≈ 0.879 µM)	0.5 µg/mL (≈ 0.44 µM)	2 µg/mL (≈ 1.76 µM)	8 µg/mL (≈ 7.03 µM)	>32 µg/mL	> 300 µM	0.5 to 4 µg/mL	
polymyxin B [PmxB 1, reference compound]	0.25 µg/mL	1 µg/mL	1 µg/mL	0.5 µg/mL	0.25 µg/mL	0.5 µg/mL	32 µg/mL	>32 µg/mL												> 300 µM
